Measured values as given in US4321376A, “Neplanocin-B and -F” (Toyo Jozo Kabushiki Kaisha, priority 1979, dated 1982).

Experiments:
[1] = Anti-depressant activity; conditions: no test details given
[2] = Nature (basicity); type: physicochemical
[3] = Solubility; type: physicochemical; conditions: for Solubility: insoluble in: solvents in which insoluble; for Solubility: soluble in: solvents in which soluble
[4] = test system: mice; experiment: Acute toxicity, intraperitoneal administration to mice; type: in vivo, mouse; conditions: 100 mg/kg

Compound | anti-depressant activity [1] | Nature [2] | Solubility: insoluble in [3] | Solubility: soluble in [3] | Acute toxicity: mortalities [4]
Nc1ncnc2c1ncn2C1C(O)C2OC2(CO)C1O (stereo not drawn) [neplanocin B] | has an anti-depressant activity | weakly basic | Insoluble: ethyl acetate, chloroform, benzene and diethyl ether | Soluble: water and dimethyl sulphoxide | No mortalities were observed
Nc1ncnc2c1ncn2C1C(O)C=C(CO)C1O (stereo not drawn) [neplanocin F] | – | weakly basic | Insoluble: ethyl acetate, chloroform, benzene and diethyl ether | Soluble: water, dimethyl sulphoxide and acetic acid | No mortalities were observed
